Results from paper PMC4967898, “Peptides interfering with protein-protein interactions in the ethylene signaling pathway delay tomato fruit ripening” (Scientific Reports, 2016).
“Also recorded” adds a separate entry of the source.

Key:
[1] = tested on: green, immature tomato fruits; experiment: Tomato fruit ripening after inhibitor treatment; format: in vivo, tomato (Solanum pimpinellifolium)
From the text: To further investigate the potential of NOP-1 for agricultural applications, we tested the effect of the NOP-1 peptide on tomato fruit ripening in comparison to other known inhibitors of ethylene responses. To this end we tested […] (MCP) and aminoethoxyvinylglycine (AVG). MCP is a known inhibitor of ethylene signaling blocking ethylene binding at the receptor proteins, whereas AVG blocks ethylene production in the plant by competitive inhibition of ACC synthases. To monitor inhibition of the fruit ripening process, we treated green, immature tomato fruits with 200 μM NOP-1, MCP or AVG, respectively and documented the fruit ripening process for 20 days. Figure 3 compares the effect of the different inhibitor treatments on tomato fruits to controls lacking the inhibitory treatment that contain either buffer alone or a random sequence control peptide (ROP-1). […] The bioassays underline the high inhibitory potential of NOP-1 on the ripening process compared to the well-known and efficient inhibitors of ethylene responses.
Inhibitor-treatment of tomato fruits
Aminoethoxyvinyl glycine (AVG) was purchased from Sigma-Aldrich, St Louis, MO (purity ~95%). SmartFresh^SM (AgroFresh, Spring House, PA) was used as sugar-based powder formulation of 1-MCP. Concentration of 1-MCP was calculated according to the percentage of active ingredient (0.14%) and release from the SmartFresh^SM powder. For comparison concentration of all inhibitors are expressed in terms of molarity. For treatment of tomato fruits with NOP-1, AVG and MCP, inhibitors were dissolved in the FRET buffer described in the previous section to a final concentration of 200 μM. Green tomato fruits (Solanum pimpinellifolium) from the same estimated developmental stage were harvested from the panicle and water-cleaned. 300 μL of the inhibitor solution was applied onto the tomato surface with a brush and the fruits were air-dried for 30 min. As an alternative application, tomato fruits were plunged into 2 mL of the inhibitor solution and incubated for 30 min in this solution or 200 μL of the peptide-containing solution were carefully injected into the tomato tissue by a hypodermic syringe. Three individual tomato fruits were treated for the different applications of the peptide in order to document the ripening process. After inhibitor-treatment tomato fruits were transferred to a vial closed with aluminum foil and stored in the dark at room temperature. Maturation process was documented every second day for at least 20 days. For measurement of ethylene production, green tomato fruits were treated as described above.

[2] = molecular target: T1, tomato EIN2-ETR1 complex (Solanum lycopersicum, UniProt Q41342); experiment: FRET assay of LeEIN2-LeETR1 complex formation; format: biochemical
T1 construct: made in house; host or cells: E. coli BL21(DE3) with pRARE (LeEIN2 fragment); E. coli (LeETR1)
T1 sequence (Q41342 1-754): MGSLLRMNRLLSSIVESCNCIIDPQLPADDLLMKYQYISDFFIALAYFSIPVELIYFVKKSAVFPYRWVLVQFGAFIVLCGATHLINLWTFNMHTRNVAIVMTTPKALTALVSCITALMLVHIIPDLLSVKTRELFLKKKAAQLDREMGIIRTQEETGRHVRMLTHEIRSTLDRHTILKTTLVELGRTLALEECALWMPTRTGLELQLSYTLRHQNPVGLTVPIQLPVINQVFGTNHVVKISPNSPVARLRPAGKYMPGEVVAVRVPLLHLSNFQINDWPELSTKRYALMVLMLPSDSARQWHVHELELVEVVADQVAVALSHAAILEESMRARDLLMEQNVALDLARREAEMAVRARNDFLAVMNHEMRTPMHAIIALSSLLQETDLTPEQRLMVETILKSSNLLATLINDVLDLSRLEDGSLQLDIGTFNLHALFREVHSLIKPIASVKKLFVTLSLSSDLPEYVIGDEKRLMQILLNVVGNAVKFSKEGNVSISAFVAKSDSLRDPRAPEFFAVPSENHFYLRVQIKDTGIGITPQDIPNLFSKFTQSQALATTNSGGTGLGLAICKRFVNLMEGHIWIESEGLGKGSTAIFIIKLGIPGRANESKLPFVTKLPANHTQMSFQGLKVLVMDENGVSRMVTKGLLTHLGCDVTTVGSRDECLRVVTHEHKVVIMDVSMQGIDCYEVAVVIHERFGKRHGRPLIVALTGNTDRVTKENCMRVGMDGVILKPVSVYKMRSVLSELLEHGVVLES
From the text: For this purpose, we made use of a fluorescence resonance energy transfer (FRET)-based in vitro assay, originally established for the respective Arabidopsis signaling proteins. Recombinant ethylene proteins LeETR1 and LeEIN2^462–1316 were labeled with fluorescent Alexa dyes[36] as described in the Methods section. LeETR1 was labeled with Alexa Fluor 488, while LeEIN2^462–1316 was labeled with Alexa Fluor 568. As the emission spectrum of the donor fluorophore partially overlaps with the excitation spectrum of the acceptor fluorophore, the dyes form a FRET pair and energy transfer from the donor to the acceptor fluorophore is possible when both probes get in close proximity. […] Formation of the complex is monitored by FRET from the donor molecule Alexa Fluor 488 to the acceptor molecule Alexa Fluor 568. Processes or molecules that prevent complex formation result in a reduced FRET from the donor to the acceptor, which is detected as reduced acceptor fluorescence at the emission maximum.
Quantitative analysis of inhibitory peptides on ETR1-EIN2 complex by FRET
For the FRET assay, recombinant LeETR1 was labeled with Alexa Fluor 488 succinimidyl-ester and LeEIN2^462–1316 was labeled with Alexa Fluor 568 succinimidyl-ester (both Life Technologies) in a buffer containing 50 mM potassium phosphate pH 8.0, 300 mM NaCl and 5% (v/v) glycerol following manufacturer’s protocol (MolecularProbes Protein Labeling Kit). Labeled proteins were transferred in FRET buffer containing 50 mM Tris-HCl pH 8.0, 300 mM NaCl, 0.05% (v/v) Tween 20, 5% (v/v) glycerol and mixed at a final concentration of 3.0 μM each. […] The FRET-based binding assay was carried out in 384-well microplates using an Infinite M200 Pro microplate reader (Tecan) at 455 nm excitation wavelength. Emission spectra were detected between 565 nm to 645 nm. FRET efficiencies were calculated from the maximal emission in the absence and in the presence of the supplied peptides and the half maximal inhibitor concentration IC50 was calculated as previously described.

[3] = tested on: green, immature tomato fruits; set-up: method as in PMID 25843012; conditions: cited from earlier work

CC(C)C[C@H](NC(=O)[C@H](CCCNC(=N)N)NC(=O)[C@H](CCCNC(=N)N)NC(=O)[C@H](CCCCN)NC(=O)[C@H](Cc1ccc(O)cc1)NC(=O)[C@H](CCCNC(=N)N)NC(=O)[C@H](CCCCN)NC(=O)[C@@H](N)CC(C)C)C(N)=O [NOP-1, LKRYKRRL-NH2]
delay in fruit ripening (Fig. 3c) ([1]; 200 μM, surface-treated, incubated or injected, versus untreated fruits): at least 5 days | delay in maturation of tomato fruits ([1]; 200 μM, all tested inhibitors and all applications of NOP-1 (injection, incubation, surface application), documented for 20 days, three fruits per application): 10 to 15 days | delay in maturation by application form (in words) ([1]; 200 μM, surface application compared with incubation and injection): Delay in maturation process is most evident for fruit surface application | effect on tomato fruit ripening (in words) ([1]; compared with buffer or untreated control, inhibitors at 200 μM): delays ripening similar to known inhibitors of ethylene perception (MCP) and ethylene biosynthesis (AVG) | penetration of fruit surface / uptake (in words) ([1]; inferred from ripening delay after surface application, 200 μM): can easily penetrate the surface tissue of the tomatoes and is taken up by the fruits; also recorded: seems to penetrate the exocarp and is taken up by the fruits | delay in ripening by injection (in words) ([1]; injection into the fruits, initial experiments): less pronounced delay in ripening | delay in fruit ripening (Fig. 3a) ([1]; surface-treated, 200 μM, versus untreated control fruits): at least 15 days | FRET efficiency (of the value observed in the absence of NOP-1) ([2]; 100 μM NOP-1, LeETR1-Alexa Fluor 488 and LeEIN2^462–1316-Alexa Fluor 568, 3 μM each, 50 mM Tris-HCl pH 8.0, 300 mM NaCl, 0.05% Tween 20, 5% glycerol, excitation 455 nm, emission 565–645 nm): about 9% | effect on tomato EIN2-ETR1 complex formation ([2]; FRET assay, 100 μM peptide where stated, LeETR1-Alexa Fluor 488 and LeEIN2-Alexa Fluor 568, 3 μM each): pronounced inhibition in FRET efficiency; also recorded: leads to a reduced FRET from LeETR1-Alexa Fluor 488 to LeEIN2-Alexa Fluor 568; also recorded: able to efficiently disrupt EIN2-ETR1 complex formation in tomato; also recorded: specific disruption of the tomato EIN2-ETR1 complex | effect on fruit ripening in tomato, previous work [3]: efficiently reduced fruit ripening in tomato
